In patent US6667335B2, “Imidazole derivatives” (Hoffmann-La Roche Inc., priority 2001, dated 2003):
Counter-ions that a name gives are not always drawn.

SMILES	melting point
Cc1nccn1Cc1cn(-c2ccc([N+](=O)[O-])cc2)cn1.Cl.Cl	> 250 °C
CCc1nccn1Cc1cn(-c2ccc([N+](=O)[O-])cc2)cn1.Cl.Cl	196 to 197 °C
Cl.Cl.O=[N+]([O-])c1ccc(-n2cnc(Cn3ccnc3)c2)cc1	245 to 246 °C
Cc1cnc(C)n1Cc1cn(-c2ccc(Cl)c(Cl)c2)cn1.Cl.Cl	> 250 °C
Cc1nccn1Cc1ccn(-c2ccc(Cl)c(Cl)c2)n1.Cl	204 to 205 °C
CSc1nccn1Cc1cn(-c2ccc(Cl)c(C)c2)cn1.Cl.Cl	202 to 204 °C (dec.)
CSc1cccc(-n2cnc(Cn3ccnc3C)c2)c1.Cl.Cl	> 200 °C (dec.)
CCc1nccn1Cc1cn(-c2cccc(OC(F)(F)F)c2)cn1.Cl.Cl	237 to 239 °C
Cl.Cl.FC(F)(F)Oc1cccc(-n2cnc(Cn3ccnc3)c2)c1	233 to 234 °C
Cl.Cl.Clc1cccc(-n2cnc(Cn3ccnc3)c2)c1	> 200 °C (dec.)
Cl.Cl.Fc1cc(-n2cnc(Cn3ccnc3)c2)cc(C(F)(F)F)c1	233 to 234 °C
Cl.Cl.c1cn(Cc2cn(-c3ccc4c(c3)CCC4)cn2)cn1	214 to 216 °C
COc1cc(-n2cnc(Cn3ccnc3)c2)cc(C(F)(F)F)c1.Cl.Cl	244 to 246 °C
CCc1nccn1Cc1cn(-c2cccc(C(C)(C)C)c2)cn1.Cl.Cl	205 °C (dec.)
CC(C)(C)c1cccc(-n2cnc(Cn3ccnc3)c2)c1.Cl.Cl	> 200 °C (dec.)
CCc1nccn1Cc1cn(-c2ccc(OC(F)(F)F)c(Cl)c2)cn1.Cl.Cl	> 250 °C
Cl.Cl.FC(F)(F)Oc1ccc(-n2cnc(Cn3ccnc3)c2)cc1Cl	212 to 213 °C
CCc1nccn1Cc1cn(-c2ccc(C)c(C)c2)cn1.Cl.Cl	> 250 °C
Cc1nccn1Cc1cn(-c2cccc(OC(F)F)c2)cn1.Cl.Cl	220 to 222 °C
Cl.Cl.FC(F)Oc1cccc(-n2cnc(Cn3ccnc3)c2)c1	205 to 206 °C
CCc1nccn1Cc1cn(-c2cccc(C(F)F)c2)cn1.Cl.Cl	219 to 220 °C
Cl.Cl.FC(F)c1cccc(-n2cnc(Cn3ccnc3)c2)c1	216 to 217 °C
CNc1nccn1Cc1cn(-c2ccc(Cl)c(Cl)c2)cn1.Cl	> 250 °C
CNc1nccn1Cc1ncn(-c2ccc(Cl)c(Cl)c2)c1CO.Cl	> 180 °C (dec.)
Cc1nccn1Cc1cn(-c2cc(F)cc(Br)c2)cn1.Cl.Cl	> 200 °C (dec.)

SMILES	melting point
Cc1ccc(-n2cnc(Cn3ccnc3C)c2)cc1C.Cl.Cl	249 to 251 °C
Cl.Cl.Fc1cc(Br)cc(-n2cnc(Cn3ccnc3)c2)c1	> 200 °C (dec.)
CCc1nccn1Cc1cn(-c2ccc3c(c2)OC(F)(F)O3)cn1.Cl.Cl	237 to 239 °C (dec.)
Cc1nccn1Cc1cn(-c2ccc3c(c2)OC(F)(F)O3)cn1.Cl.Cl	> 250 °C
CCc1nccn1Cc1cn(-c2ccc(SC(F)(F)F)c(Cl)c2)cn1.Cl.Cl	214 to 215 °C
Cc1nccn1Cc1cn(-c2ccc(SC(F)(F)F)c(Cl)c2)cn1.Cl.Cl	195 to 198 °C
Cl.Cl.FC(F)(F)Sc1ccc(-n2cnc(Cn3ccnc3)c2)cc1Cl	244 to 245 °C
Cc1nccn1Cc1cn(-c2cc3ccccc3cn2)cn1.Cl.Cl	> 250 °C
CCc1nccn1Cc1cn(-c2ccc(OC(F)(F)F)cc2)cn1.Cl.Cl	216 to 218 °C
CCc1nccn1Cc1cn(-c2ccc(SC(F)(F)F)cc2)cn1.Cl.Cl	183 to 185 °C
Cc1nccn1Cc1cn(-c2ccc(SC(F)(F)F)cc2)cn1.Cl.Cl	249 to 250 °C
Cc1ccc(-n2cnc(Cn3ccnc3C)c2)cc1.Cl.Cl	> 250 °C
Cc1ccc(-n2cnc(Cn3ccnc3)c2)cc1.Cl.Cl	228 to 229 °C
CCc1nccn1Cc1cn(-c2ccc(F)c(C)c2)cn1.Cl.Cl	210 to 212 °C
Cc1cc(-n2cnc(Cn3ccnc3)c2)ccc1F.Cl.Cl	242 to 243 °C
CCc1nccn1Cc1cn(-c2ccc(SC)cc2)cn1.Cl.Cl	161 to 162 °C
CSc1ccc(-n2cnc(Cn3ccnc3)c2)cc1.Cl.Cl	233 to 234 °C
Cc1nccn1Cc1cn(-c2cccc(C(F)(F)F)c2)cn1.Cl.Cl	218 to 220 °C
CCc1nccn1Cc1cn(-c2cccc(C(F)(F)F)c2)cn1.Cl.Cl	216 to 218 °C
CCc1nccn1Cc1cn(-c2ccc(F)c(C(F)(F)F)c2)cn1.Cl.Cl	> 238 °C (dec.)
Cl.Cl.Fc1ccc(-n2cnc(Cn3ccnc3)c2)cc1C(F)(F)F	> 246 °C (dec.)
CCc1nccn1Cc1cn(-c2ccc(C)c(C(F)(F)F)c2)cn1.Cl.Cl	> 250 °C
Cc1ccc(-n2cnc(Cn3ccnc3)c2)cc1C(F)(F)F.Cl.Cl	> 250 °C
CCc1nccn1Cc1cn(-c2ccc(Cl)c(OC)c2)cn1.Cl.Cl	244 to 246 °C (dec.)
COc1cc(-n2cnc(Cn3ccnc3C)c2)ccc1Cl.Cl.Cl	> 250 °C

SMILES	melting point
COc1cc(-n2cnc(Cn3ccnc3)c2)ccc1Cl.Cl.Cl	221 to 222 °C
COc1cc(-n2cnc(Cn3ccnc3C)c2)ccc1F.Cl.Cl	> 220 °C (dec.)
COc1cc(-n2cnc(Cn3ccnc3)c2)ccc1F.Cl.Cl	174 to 178 °C
CCc1nccn1Cc1cn(-c2ccc(Cl)cc2)cn1.Cl.Cl	200 to 201 °C
Cl.Cl.Clc1ccc(-n2cnc(Cn3ccnc3)c2)cc1Cl	> 250 °C
Cl.Cl.Clc1ccc(-n2cnc(Cn3ccnc3)c2)cc1	228 to 229 °C
CCc1nccn1Cc1cn(-c2ccc3c(c2)OCO3)cn1.Cl.Cl	> 250 °C
Cl.Cl.c1cn(Cc2cn(-c3ccc4c(c3)OCO4)cn2)cn1	197 to 198 °C
Cc1ccc(-n2cnc(Cn3ccnc3C)c2)cc1F.Cl.Cl	> 250 °C
CCc1nccn1Cc1cn(-c2ccc(C)c(F)c2)cn1.Cl.Cl	> 250 °C
Cc1ccc(-n2cnc(Cn3ccnc3)c2)cc1F.Cl.Cl	223 to 224 °C
COc1ccc(-n2cnc(Cn3ccnc3C)c2)cc1Cl.Cl.Cl	240 to 241 °C
COc1ccc(-n2cnc(Cn3ccnc3)c2)cc1Cl.Cl.Cl	245 to 246 °C
Cc1nccn1Cc1cn(-c2ccc(Cl)cc2F)cn1.Cl.Cl	235 to 236 °C
CCc1nccn1Cc1cn(-c2ccc(Cl)cc2F)cn1.Cl.Cl	248 to 249 °C
Cl.Cl.Fc1cc(Cl)ccc1-n1cnc(Cn2ccnc2)c1	> 212 °C (dec.)
CCc1nccn1Cc1cn(-c2ccc(Br)cc2)cn1.Cl.Cl	> 250 °C
Brc1ccc(-n2cnc(Cn3ccnc3)c2)cc1.Cl.Cl	237 to 239 °C
CCc1nccn1Cc1cn(-c2ccc(OC(F)F)cc2)cn1.Cl.Cl	199 to 200 °C
Cc1nccn1Cc1cn(-c2ccc(OC(F)F)cc2)cn1.Cl.Cl	228 to 229 °C
CCc1nccn1Cc1cn(-c2ccc(OCc3ccccc3)cc2)cn1.Cl.Cl	222 to 223 °C
Cl.Cl.c1ccc(COc2ccc(-n3cnc(Cn4ccnc4)c3)cc2)cc1	224 to 225 °C
CCc1nccn1Cc1cn(-c2ccc(C)c(OC)c2)cn1.Cl.Cl	> 250 °C
COc1cc(-n2cnc(Cn3ccnc3)c2)ccc1C.Cl.Cl	249 to 251 °C
CCc1nccn1Cc1cn(-c2ccc(C(F)(F)F)cc2)cn1.Cl.Cl	240 to 242 °C

SMILES	melting point
Cc1nccn1Cc1cn(-c2ccc(C(F)(F)F)cc2)cn1.Cl.Cl	246 to 248 °C
Cl.Cl.FC(F)(F)c1ccc(-n2cnc(Cn3ccnc3)c2)cc1	220 to 222 °C
CCc1nccn1Cc1cn(-c2ccc3c(c2)COC3)cn1.Cl.Cl	> 108 °C (dec.)
Cc1nccn1Cc1cn(-c2ccc3c(c2)COC3)cn1.Cl.Cl	> 250 °C
COc1ccc(-n2cnc(Cn3ccnc3C)c2)cc1F.Cl.Cl	238 to 240 °C
Cc1ncn(Cc2cn(-c3ccc(Cl)c(Cl)c3)cn2)c1C.Cl.Cl	> 250 °C
CCc1nccn1Cc1cn(-c2ccc(OC)c(F)c2)cn1.Cl.Cl	218 to 220 °C
COc1ccc(-n2cnc(Cn3ccnc3C)c2)cc1.Cl.Cl	> 250 °C
CCc1nccn1Cc1cn(-c2cccc(OC)c2)cn1.Cl.Cl	246 to 248 °C
COc1cccc(-n2cnc(Cn3ccnc3C)c2)c1.Cl.Cl	242 to 243 °C
COc1cccc(-n2cnc(Cn3ccnc3)c2)c1.Cl.Cl	219 to 220 °C
COc1ccc(-n2cnc(Cn3ccnc3C)c2)cc1C(F)(F)F.Cl.Cl	> 222 °C (dec.)
CCc1nccn1Cc1cn(-c2ccc(OC)c(C(F)(F)F)c2)cn1.Cl.Cl	> 226 °C (dec.)
CCc1nccn1Cc1cn(-c2ccc(C)c(Cl)c2)cn1.Cl.Cl	178 to 179 °C
Cl.Cl.Clc1ccc(-n2cnc(Cn3ccnc3-c3ccccc3)c2)cc1Cl	197 to 198 °C
CCc1nccn1Cc1cn(-c2ccc(Cl)c(C(F)(F)F)c2)cn1.Cl.Cl	179 to 180 °C
Cc1nccn1Cc1cn(-c2ccc(Cl)c(C(F)(F)F)c2)cn1.Cl.Cl	> 250 °C
Cl.Cl.FC(F)(F)c1cc(-n2cnc(Cn3ccnc3)c2)ccc1Cl	> 250 °C
Cl.Cl.Fc1ccc(-n2cnc(Cn3ccnc3)c2)cc1Cl	210 to 212 °C
CCc1nccn1Cc1cn(-c2ccc(-c3ccccc3)cc2)cn1.Cl.Cl	248 to 253 °C
Cc1nccn1Cc1cn(-c2ccc(-c3ccccc3)cc2)cn1.Cl.Cl	169 to 175 °C
CCc1nccn1Cc1cn(-c2ccc(C(C)C)c(C)c2)cn1.Cl.Cl	> 180 °C (dec.)
Cc1ccc(-n2cnc(Cn3ccnc3)c2)cc1C (as salt: hydrochloride) [Example 21]	218 to 219 °C
CSc1ccc(-n2cnc(Cn3ccnc3C)c2)cc1 (as salt: hydrochloride) [Example 27]	242 to 243 °C
